Assay results taken from the METLIN SMRT retention time set (Domingo-Almenara et al. 2019).

Test: gradient 5% acetonitrile 3 min, to 50% in 2 min, to 85% in 15 min, held 3 min, 100 µL/min
Conditions: column: Zorbax Extend-C18 2.1 x 50 mm; eluents: water / acetonitrile, 0.1% formic acid
Summary of the method: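 Using water and acetonitrile that each contained 0.1% formic acid, mixtures of ~100 pure standards were separated at 100 μL/min on a Zorbax Extend-C18 column (2.1 × 50 mm, 1.8 μm). The HPLC fed a quadrupole time-of-flight mass spectrometer working in positive and negative ionization mode, with dead and dwell volumes of 40 μL and 900 μL. Data were acquired over 3 months. Retention time was read from computationally picked adduct peaks after manual inspection of each.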

RP-LC retention time | Compound
943 s | Cc1cc(C)c(C)c(S(=O)(=O)N2CCn3c(nn(CC4CC4)c3=O)C2)c1C
1130 s | CSc1ccc(-c2noc(Cn3ncn4nc(-c5cccs5)cc4c3=O)n2)cc1
785 s | CCCc1noc(-c2cccnc2N2CCCN(Cc3cccc(C(F)(F)F)c3)CC2)n1
864 s | CCc1ccc(NC(=O)C2Cc3cc(S(=O)(=O)N4CCCCC4)ccc3N2C(C)=O)cc1 (stereo unspecified)
857 s | Cn1c(=O)c(N2CCC(NC(=O)NCCc3ccccc3)CC2)nc2ccccc21
1140 s | C=CCn1c(=O)c2ccccc2n(Cc2nc(-c3ccc(OC(F)(F)F)cc3)no2)c1=O
1170 s | O=C(CCc1nc(-c2ccc(N3CCCC3)cc2)no1)NCCC1=CCCCC1
886 s | Cc1ccc(C)c(-n2ccn(Cc3nc(-c4ccccc4)no3)c(=O)c2=O)c1
852 s | CCC1CN(C(=O)N2CCC(C(=O)NCCc3ccco3)CC2)c2ccccc2O1 (stereo unspecified)
607 s | CCOC(=O)c1c(C)[nH]c(CCC(=O)NCCN2CCCCC2)c1C
731 s | COc1ccc2nc(C(=O)N3CCN(c4ccc(F)cc4)CC3)cn2n1

Continued, compound first:

Compound | RP-LC retention time
COc1ccc(CNC(=O)C2CCN(S(C)(=O)=O)c3cc(C)ccc3O2)cc1 (stereo unspecified) | 830 s
CCNc1cc(N2CCC(CCC(=O)NCc3ccccc3)CC2)ncn1 | 647 s
CCc1ccc(CNC(=O)C2(c3ccc(NC(C)=O)cc3)CCC2)cc1 | 827 s
O=C1C2CC3N1CCC31c3ccccc3-n3c1c2ccc3=O (stereo unspecified) | 721 s
CC(C)c1cc(C(=O)Nc2cc(F)cc(F)c2)nc2ccnn12 | 1180 s
COc1ccc(OCC(=O)Nc2nc(-c3ccc(Cl)cc3)cs2)cc1 | 1140 s
CCn1cc(C(=O)Nc2ccc(F)c(F)c2)c(S(=O)(=O)N2CCSCC2)n1 | 1010 s
CC(C)CN1C(=O)c2cccn2CC1C(=O)NCCCOC(C)C (stereo unspecified) | 718 s
CC(C)(C)c1csc(-c2csc(S(=O)(=O)NCc3ccc(Cl)cc3)c2)n1 | 1340 s
COc1ccc(C(=O)NCCc2c[nH]c3ccc(Cl)cc23)cc1OC | 817 s
Cc1cccc(NC(=O)C2CCN(S(=O)(=O)c3c(C)[nH]c(C)c3C(=O)N3CCCCC3)CC2)n1 | 642 s
O=C(c1ccccn1)N1CCN(C(=O)c2nnn3c2COC(c2ccccc2)C3)CC1 (stereo unspecified) | 717 s
CC(C)c1noc(-c2cc(=O)n(CC(=O)Nc3ccc(Cl)cc3)c3ccccc23)n1 | 1060 s
O=C(NC1CC1)c1ccc(OCC2CCN(C(=O)Cc3ccc(F)cc3)CC2)cc1 | 787 s
O=C(Nc1ccc2c(c1)OCCO2)N1CCc2nn(CC3CC3)c(=O)n2CC1 | 703 s
CCc1ccc(C(=O)N2CCN(c3cc(-c4ccc(C)cc4)ncn3)CC2)cc1 | 731 s
COC(=O)c1ccc(NC(=O)CSc2nnc(C)c3cnn(-c4ccccc4)c23)cc1 | 705 s
COc1ccc(CNC(=O)CN2C(=O)NC3(CCC(C(C)(C)C)CC3)C2=O)cc1OC (stereo unspecified) | 863 s
Cc1nc2cc(N3CC(C(=O)N4CCN(c5ccccc5F)CC4)CC3=O)ccc2o1 (stereo unspecified) | 788 s
COc1cccc(-c2cn3ccn(-c4ccc(F)c(Cl)c4)c(=O)c3n2)c1 | 859 s
O=C(Cn1cnc2nc(N3CCC(C(=O)NC4CC4)CC3)sc2c1=O)Nc1ccccc1Cl | 665 s
Cc1noc(C)c1S(=O)(=O)N1CCC(n2c(C)cnc2-c2ccncc2)C1 (stereo unspecified) | 616 s
CCC1(O)CCOC2(CCN(Cc3ccc(OC)c(C)c3)CC2)C1 (stereo unspecified) | 575 s
O=C(CCC1CCN(c2cc(NC3CC3)ncn2)CC1)NCc1cccnc1 | 548 s
CCc1noc(-c2cccnc2N2CCCN(Cc3c(F)cccc3Cl)CC2)n1 | 668 s
